Earlier results as cited in US20070072232A1, “Identification of genetic components of drug response” (Variagenics, Inc. a Delaware corporation, priority 2000, published 2007).
Structures can show the parent of a compound that is named as a salt.

Test system: Alzheimer's disease
Conditions: per PDR

Nc1c2c(nc3ccccc13)CCCC2 [Cognex, tacrine hydrochloride]
patients showing no change or minimal worsening of their disease (patients receiving Cognex for Alzheimer's disease): about 45%
Alzheimer's patients minimally improved (patients receiving Cognex): About 58%
patients much improved (patients receiving Cognex): about 2%
